# Laboratory results reported in article PMC8880588, “In-Silico Screening of Novel Synthesized Thienopyrimidines Targeting Fms Related Receptor Tyrosine Kinase-3 and Their In-Vitro Biological Evaluation” (Pharmaceuticals, 2022).
# Legend:
# [1] = system: MCF-7; test: MTT dose-response anti-proliferative assay, MCF-7; type: cell-based, human
# From the text: (§1) Doxorubicin was used as a positive reference for the comparison of anticancer activities. The results are tabulated as IC50 value in the μM range, Table 1.
# (§2) Three cancer cell lines were used in the antiproliferative activities experiments, namely, breast cancer cell line (MCF-7) and human hepatoma cell line (HepG-2), and Colorectal cell line (HT-29). The source of cell lines is the health sciences research center-core lab- at princess Nou-rah bint Abdulrahman university. All cell lines were maintained in their optimum media (RPMI-1640 or DMEM) supplemented with 10% fetal bovine serum, 100 U/mL penicillin, and 100 μg/mL streptomycin and incubated in a humidified atmosphere at 37 °C with 5% CO2.
# (§3) The MTT assay was used to evaluate the anti-proliferative effect of the synthesized compounds against three human cancer cell lines hepatocellular carcinoma (HepG-2), breast cancer (MCF-7) and Colorectal carcinoma (HT-29). For the preliminary screening, HT-29 cells were seeded in 96-well plates (Thermo Scientific, Waltham, MA, USA)(10^3 cells/well) and incubated for 24 h before the treatment. Then, cells were treated with two concentrations (10 and 100 µM) of the tested compounds for 72 h. After the exposure, MTT assay protocol was performed as described. After evaluation of the preliminary anticancer activity, the promising synthesized compounds (8, 9a, 9b, 10a, and 11) were selected and examined against three cell lines (HepG-2, MCF-7, and HT-29). Cells were exposed to serial concentration ([…]) of the selected compounds and dose–response curves were determined to calculate their IC50 values.
# [2] = system: HepG-2; test: MTT dose-response anti-proliferative assay, HepG-2; type: cell-based; conditions: Homo sapiens, HepG2; HepG-2, MTT
# From the text: as §1, §2, §3
# [3] = system: HT-29; test: MTT dose-response anti-proliferative assay, HT-29; type: cell-based; conditions: Homo sapiens; HT-29, MTT
# From the text: as §1, §2, §3
# [4] = target: T1, FLT3 (Homo sapiens, UniProt P36888); test: In-vitro FLT3 kinase enzyme inhibition assay (FLT3 Kinase Assay Kit); type: biochemical; conditions: FLT3 1.5 ng/µL, 45 min, mean ± SD, n = 3; read-out: FLT3 kinase inhibitory activity IC50
# T1 construct: purchased BD Biosciences, San Diego, CA, USA
# T1 sequence (P36888 27-993): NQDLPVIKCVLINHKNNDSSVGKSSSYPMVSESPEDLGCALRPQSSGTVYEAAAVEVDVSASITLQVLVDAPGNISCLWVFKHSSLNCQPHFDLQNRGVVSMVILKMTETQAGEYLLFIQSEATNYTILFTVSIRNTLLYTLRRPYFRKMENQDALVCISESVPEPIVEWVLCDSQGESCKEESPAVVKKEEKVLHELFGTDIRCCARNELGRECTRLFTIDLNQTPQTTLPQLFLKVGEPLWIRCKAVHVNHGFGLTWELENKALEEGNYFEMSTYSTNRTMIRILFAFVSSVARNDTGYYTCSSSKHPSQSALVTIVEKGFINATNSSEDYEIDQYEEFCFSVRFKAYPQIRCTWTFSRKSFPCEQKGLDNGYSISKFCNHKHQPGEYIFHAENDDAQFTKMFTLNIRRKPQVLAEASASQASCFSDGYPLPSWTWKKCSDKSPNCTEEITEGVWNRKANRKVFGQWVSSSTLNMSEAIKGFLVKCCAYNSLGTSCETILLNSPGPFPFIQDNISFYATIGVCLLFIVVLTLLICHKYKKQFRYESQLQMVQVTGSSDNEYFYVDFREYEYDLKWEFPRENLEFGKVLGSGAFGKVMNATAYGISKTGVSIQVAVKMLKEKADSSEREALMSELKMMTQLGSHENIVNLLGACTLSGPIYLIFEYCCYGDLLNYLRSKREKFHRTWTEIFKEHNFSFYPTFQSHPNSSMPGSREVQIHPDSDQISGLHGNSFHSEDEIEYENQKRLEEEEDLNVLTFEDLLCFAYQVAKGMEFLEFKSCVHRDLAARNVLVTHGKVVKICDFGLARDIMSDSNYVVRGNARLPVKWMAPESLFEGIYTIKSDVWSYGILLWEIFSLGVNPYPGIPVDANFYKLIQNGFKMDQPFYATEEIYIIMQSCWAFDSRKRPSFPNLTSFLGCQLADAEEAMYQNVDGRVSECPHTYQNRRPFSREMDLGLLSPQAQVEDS
# Protocol: FLT3 Kinase Assay Kit (BD Biosciences, San Diego, CA, USA) was used to determine the inhibitory selectivity of the selected compounds towards the FLT3 enzyme. briefly, serial dilution of the selected compounds was incubated with FLT3 (1.5 ng/µL) for 45 min in a kinase reaction buffer. The FLT3 enzyme reaction was halted and measured by quantifying the amount of ADP produced during the enzyme reaction. Luminescence values were measured by a Varioskan™ LUX multimode microplate reader (Thermo Scientific, Waltham, MA, USA). IC50 was calculated with nonlinear regression compared with untreated reaction using Prism version 8.4.3 (GraphPad).
# [5] = system: HT-29 cells; test: Preliminary antiproliferative assessment (MTT) at 10 and 100 μM; type: cell-based, human; conditions: for growth inhibitory activities against HT-29 cells (preliminary assay): 10 and 100 μM, 72 h; for cytotoxic profile: result in words
# Protocol: All synthesized compounds were subjected to preliminary antiproliferative assessment that was performed on HT-29 cells using concentrations 10 and 100 μM of synthesized compounds for 72 h and the percentage of cell viability was then calculated. […] Thus, all five compounds were further studied by a detailed dose–response relationship against three different cancerous cell lines HT-29, Hep-G2 and MCF-7.
# as §2, §3
# [6] = system: protein kinases extracted from HT-29 cell line; test: Kinase inhibition assessment, single dose, ADP-Glo assay; type: biochemical, human; conditions: 20 μM single dose, total intracellular kinases from HT-29, 45 min
# Protocol: Inhibitory activity against kinases of the selected compounds was examined using homogeneous protein kinases extracted from HT-29 cell line. The screening assay was performed in a single dose concentration (20 μM) by using ADP-Glo assay (Promega, Madison, WI, USA).
# Briefly, protein kinases were added into a 96-well plate followed by addition of the synthesized compounds at the tested dose (20 μM). After 45 min of exposure, kinase activity was assessed using a luminescent luciferase/luciferin reaction. Luminescence quantification was measured by using a Varioskan™ LUX multimode microplate reader (Thermo Scientific, Waltham, MA, USA). Kinase inhibition effect of tested compounds was expressed as the percentage of remaining kinase activity relative to vehicle kinase reaction.
# [7] = system: normal colon epithelial cells (CCD 841 CoN); test: Selectivity assay (MTT) on non-cancerous cells; type: cell-based; conditions: for IC50: Homo sapiens, CCD 841 CoN, 72 h, MTT, read-out: IC50 of Non-Cancer Cells CCD 841; for Selectivity Index (SI) (IC50 of CCD 841/IC50 of HT29): ratio normal CCD 841 / cancer HT-29, 72 h
# Protocol: In an attempt to evaluate the anticancer activity of the compounds, selectivity assay was performed and compounds’ selectivity to malignant cells was determined, reflected by their selectivity index. The selectivity index (SI) was calculated by the ratio of the IC50 value of the selected compounds on normal colon epithelial cells (CCD 841 CoN) to the IC50 value of the compounds on cancer cells (HT-29). […] However, based on the designed strategy, this high selectivity towards cancer cells may be attributed to their ability to target oncogenic kinases.
# Cells were plated in 96-well plates (10^3 cells/well), and after 24 h, the compounds in concentrations (0.1 to 100 μM) were incubated for 72 h. MTT procedure was then performed, the ratio of IC50 values of the compounds on non-cancerous cells (CCD 841 CoN) to the IC50 values of the compounds on cancer cells (HT-29) was determined as reported, [23, 24] using the following equation, SI = IC50 of normal cells/IC50 of cancer cells.
Structure (SMILES),"IC50 ([1]; Homo sapiens, MCF7, MCF-7, MTT)",IC50 [2],IC50 [3],melting point,IC50 [4],growth inhibitory activities against HT-29 cells (preliminary assay) [5],cytotoxic profile [5],kinase inhibition [6],IC50 [7],Selectivity Index (SI) (IC50 of CCD 841/IC50 of HT29) [7],"IC50 ([1]; MCF-7, MTT)","growth inhibition at concentration 100 µM ([5]; 100 µM, preliminary assay)"
"COc1cccc2c1C(=O)c1c(O)c3c(c(O)c1C2=O)C[C@@](O)(C(=O)CO)C[C@@H]3O[C@H]1C[C@H](N)[C@H](O)[C@H](C)O1 [Dox, Doxorubicin, reference compound]",8.43 ± 0.5 µM,13.9 ± 2.2 µM,1400 ± 1160 nM,–,–,–,–,–,–,–,–,–
"Cc1nc2sc3c(c2c(=O)n1NC(=O)CN1CCOCC1)CCCC3 [Compound 10a, N-(2-methyl-4-oxo-5,6,7,8-tetrahydrobenzo[4,5]thieno[2,3-d]pyrimidin-3(4H)-yl)-2-morpholinoacetamide]",105 ± 36.4 µM,188 ± 28.2 µM,167000 ± 8150 nM,222 to 225 °C,17.8 ± 3.8 µM,moderate to significant,weak cytotoxic profile,75.1%,–,–,–,–
"Cc1nc2sc3c(c2c(=O)n1NCC(=O)Nc1cc(C(C)(C)C)no1)CCCC3 [Compound 7a, 2-(2-Methyl-4-oxo-5,6,7,8-tetrahydrobenzo[4,5]thieno[2,3-d]pyrimidin-3(4H)-ylamino)-N-(3-tert-butylisoxazol-5-yl)acetamide]",–,–,–,120 to 122 °C,–,–,–,–,–,–,–,–
"Cc1nc2sc3c(c2c(=O)n1NC(=O)CCl)CCCC3 [Compound 8, 2-Chloro-N-(2-methyl-4-oxo-5,6,7,8-tetrahydrobenzo[4,5]thieno[2,3-d]pyrimidin-3(4H)-yl)acetamide]",11 ± 0.8 µM,13.5 ± 2.7 µM,2000 ± 620 nM,–,–,moderate to significant,–,49.6%,151 ± 20.2 µM,75.5,–,–
"Cc1nc2sc3c(c2c(=O)n1NC(=O)CN1CCN(C)CC1)CCCC3 [Compound 10b, N-(2-methyl-4-oxo-5,6,7,8-tetrahydrobenzo[4,5]thieno[2,3-d]pyrimidin-3(4H)-yl)-2-(4-methylpiperazin-1-yl)acetamide]",–,–,–,187 to 189 °C,–,–,weak cytotoxic profile,–,–,–,–,–
"Cc1nc2sc3c(c2c(=O)n1NC(=O)CNc1cc(C(C)(C)C)on1)CCCC3 [Compound 9b, 2-(5-Tert-butylisoxazol-3-ylamino)-N-(2-methyl-4-oxo-5,6,7,8-tetrahydrobenzo[4,5]thieno[2,3-d]pyrimidin-3(4H)-yl)acetamide]",16.3 ± 2.3 µM,9.11 ± 0.3 µM,850 ± 160 nM,98 to 100 °C,47.6 ± 9.3 µM,moderate to significant,–,13.05%,17.2 ± 1.4 µM,20.2,–,–
"CCOC(=O)c1c(NC(=S)Nc2ccccc2)sc2c1CCCC2 [Compound 11, Ethyl-2-(3-phenylthioureido)-5,6,7,8-tetrahydrobenzo[b]thiophene-3-carboxylate]",7.53 ± 0.07 µM,16.4 ± 5.7 µM,1780 ± 600 nM,170 to 172 °C,40 ± 5.5 µM,moderate to significant,–,79.2%,178 ± 20.4 µM,99.7,7.537 ± 0.07 µM,–
"Cc1nc2sc3c(c2c(=O)n1N1C(=O)CN(c2ccccc2)C1=S)CCCC3 [Compound 6, 2-Methyl-3-(5-oxo-3-phenyl-2-thioxoimidazolidin-1-yl)-5,6,7,8-tetrahydrobenzo[4,5]thieno[2,3-d]pyrimidin-4(3H)-one]",–,–,–,198 to 200 °C,–,–,–,–,–,–,–,–
"Cc1nc2sc3c(c2c(=O)n1NCC(=O)Nc1cc(C(C)(C)C)on1)CCCC3 [Compound 7b, 2-(2-Methyl-4-oxo-5,6,7,8-tetrahydrobenzo[4,5]thieno[2,3-d]pyrimidin-3(4H)-ylamino)-N-(5-tert-butylisoxazol-3-yl)acetamide]",–,–,–,128 to 130 °C,–,–,–,–,–,–,–,–
"Cc1nc2sc3c(c2c(=O)n1NC(=O)CNc1cc(C(C)(C)C)no1)CCCC3 [Compound 9a, 2-(3-Tert-butylisoxazol-5-ylamino)-N-(2-methyl-4-oxo-5,6,7,8-tetrahydrobenzo[4,5]thieno[2,3-d]pyrimidin-3(4H)-yl)acetamide]",7.2 ± 1.9 µM,6.62 ± 0.7 µM,1210 ± 340 nM,89 to 92 °C,20.4 ± 2.8 µM,moderate to significant,–,–,11.3 ± 5.6 µM,9.4,–,–
"CC1=CC(=O)N(n2c(C)nc3sc4c(c3c2=O)CCCC4)C1=O [Compound 4, 3-Methyl-1-(2-methyl-4-oxo-5,6,7,8-tetrahydrobenzo[4,5]thieno[2,3-d]pyrimidin-3(4H)-yl)-1H-pyrrole-2,5-dione]",–,–,–,125 to 127 °C,–,–,–,–,–,–,–,weak growth inhibition
"Cc1nc2sc3c(c2c(=O)n1NC(=S)Nc1ccccc1)CCCC3 [Compound 5, 1-(2-Methyl-4-oxo-5,6,7,8-tetrahydrobenzo[4,5]thieno[2,3-d]pyrimidin-3(4H)-yl)-3-phenylthiourea]",–,–,–,138 to 140 °C,–,–,–,–,–,–,–,–
"Nn1c(Nc2ccccc2)nc2sc3c(c2c1=O)CCCC3 [Compound 12, 3-Amino-2-phenylamino-5,6,7,8-tetrahydrobenzo[4,5]thieno[2,3-d]pyrimidin-4(3H)-one]",–,–,–,198 to 200 °C,27.2 ± 5.6 µM,–,–,65.3%,–,–,–,–
